From patent US20100311717A1, “METHODS AND COMPOSITIONS FOR RETARDING WEIGHT GAIN ASSOCIATED WITH USE OF ATYPICAL ANTIPSYCHOTIC DRUGS” (priority 2007, published 2010)
Like-named read-outs stand apart in the source and are kept apart here.

Columns and labels:
[1] = Clinical cases: galactorrhea; details: Example 2, risperidone 2 mg per day
D3 = D3 (Homo sapiens, UniProt P35462); details: cited from earlier work
[2] = tested on: cytochrome p450 (CPY) system; details: cited from earlier work
[3] = in vivo; cited from earlier work
[4] = Clinical cases: appetite / hunger; details: Example 10, olanzapine 2.5 mg HS
[5] = cited from earlier work
[6] = not given; remark: listed apart in the source
[7] = in vivo; cited from earlier work; remark: listed apart in the source
[8] = Parkinson's disease, 3.5-4.5 mg/day; decreased when the dose was lowered; cited from earlier work
[9] = bipolar II, 6 weeks, n=10; cited from earlier work
[10] = in vivo; cited from earlier work; remark: listed apart in the source
[11] = macroprolactinomas; cited from earlier work
[12] = Example 12, approximately two months on pramipexole, same as before starting
[13] = Example 9, pramipexole 0.25 mg AM & HS with quetiapine

D3, sequence (P35462 whole entry): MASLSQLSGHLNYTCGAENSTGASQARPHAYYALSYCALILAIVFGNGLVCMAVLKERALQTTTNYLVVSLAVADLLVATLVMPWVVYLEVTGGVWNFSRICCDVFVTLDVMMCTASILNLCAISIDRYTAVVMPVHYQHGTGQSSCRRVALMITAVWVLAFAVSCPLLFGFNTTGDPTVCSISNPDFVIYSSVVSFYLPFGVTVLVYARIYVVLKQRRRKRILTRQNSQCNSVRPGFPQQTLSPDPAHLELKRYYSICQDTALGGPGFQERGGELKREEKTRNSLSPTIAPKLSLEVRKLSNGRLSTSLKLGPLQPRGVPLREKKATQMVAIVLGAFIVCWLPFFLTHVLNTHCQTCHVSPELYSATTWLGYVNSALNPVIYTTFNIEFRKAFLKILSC

Which galactorrhea [1] does the source give for `Cc1nc2n(c(=O)c1CCN1CCC(c3noc4cc(F)ccc34)CC1)CCCC2` [risperidone] here?
Its galactorrhea is “developed galactorrhea”.

For `CCCN(CCC)CCc1cccc2c1CC(=O)N2` [ropinirole], which “D3 affinity relative to pramipexole” value (D3) is on record?
Its value is “less D3 affinity”.

And the “interaction with the cytochrome p450 system” value [2]?
The value was “p450 interactions”.

For `C[C@]12C=CC(=O)C=C1CC[C@@H]1[C@@H]2C(=O)C[C@@]2(C)[C@H]1CC[C@]2(O)C(=O)CO` [prednisone], which weight after treatment (human, in vivo) is on record?
Its weight after treatment is 185 pounds.

Which results are given for `CC(C)C[C@H]1C(=O)N2CCC[C@H]2[C@]2(O)O[C@](NC(=O)[C@@H]3C=C4c5cccc6[nH]c(Br)c(c56)C[C@H]4N(C)C3)(C(C)C)C(=O)N12` [bromocriptine]?
abdominal cramps [3]: 4%; constipation [3]: 3%; diarrhea [3]: 3%; dizziness [3]: 17%; drowsiness [3]: 3%; fatigue [3]: 7%; headache [3]: 19%; incidence of adverse effects [3]: 69%; lightheadedness [3]: 5%; nasal congestion [3]: 3%; nausea [3]: 49%; patients in whom therapy was discontinued because of adverse effects [3]: approximately 5%; vomiting [3]: 5%

Which appetite [4] does the source give for `Cc1cc2c(s1)Nc1ccccc1N=C2N1CCN(C)CC1` [olanzapine] here?
Its appetite is “marked increase in appetite”.

What does the source list for `CCCN[C@H]1CCc2nc(N)sc2C1` [pramipexole]?
increase in anxiety ([5]; early in the dose escalation): 18 of 38; nausea reported ([5]; fibromyalgia, 14 week study): 79%; triglycerides after pramipexole ([6]; Example 7, pre-pramipexole 2.88 mmol/L): 2.4 mmol/L; cholesterol after pramipexole ([6]; Example 7, pre-pramipexole 6.6 mmol/L): 5.6 mmol/L; cholesterol [6, 12]: 7.5 mmol/L; fasting blood sugar (FBS) [6, 12]: 6.6 mmol/L; triglycerides [6, 12]: 3.6 mmol/L; interaction with the cytochrome p450 system [2]: does not interact; weight lost (Example 1, pramipexole 0.25 mg twice per day with olanzapine 20 mg per day): 11 pounds; weight after treatment (Example 1, pramipexole 0.25 mg twice per day with olanzapine 20 mg per day, from 187 pounds): 176 pounds; weight maintained at (Example 3, olanzapine 10 mg per day with pramipexole up to 0.75 mg per day, prednisone 5 mg per day added): 202 pounds; weight after restarting pramipexole (Example 4, 0.25 mg twice daily, within the next two weeks): 174 pounds; weight maintained at (Example 4, olanzapine 5 mg per day with pramipexole 0.25 mg twice per day): 168 pounds; weight after discontinuing pramipexole (Example 4, within one week, on olanzapine 5 mg per day): 181 pounds; weight after treatment (Example 5, pramipexole increased to 0.25 mg per day, after 6 weeks): 154 pounds; weight after discontinuing pramipexole (Example 6): 250 pounds; weight after treatment (Example 6, pramipexole 0.25 mg per day, from 247 pounds): 244 pounds; weight after treatment (Example 7, pramipexole 0.25 mg per day, later): 212 pounds; weight after treatment (Example 7, pramipexole increased to 0.25 mg per day, in two weeks): 214 pounds; weight maintained at (Example 8, olanzapine 15 mg per day with pramipexole 0.25 mg TID): 259 pounds; weight decreased by [13]: 3 pounds; weight maintained at [13]: 157 pounds; weight gained (Example 11, pramipexole 0.25 mg AM & HS for 3 weeks, with quetiapine): 5 pounds; weight after treatment (Example 12, pramipexole 0.25 mg twice per day): 172 pounds; weight after treatment (Example 13, pramipexole up to 0.25 mg twice per day, from 132 pounds): 127 pounds; weight lost (Example 13, pramipexole up to 0.25 mg twice per day, in three weeks): 5 pounds; weight maintained at (Example 14, olanzapine 10 mg per day with pramipexole 0.25 mg twice per day, several months): 312 pounds; excreted unchanged in the urine [7]: 90%; effect on weight [8]: caused weight gain; subjects who developed hypomanic symptoms [9]: One

For `CCCN1CC(NS(=O)(=O)N(CC)CC)CC2Cc3c(O)cccc3CC21` (centres unmarked) [Quinagolide, quinagolide], which half-life [10] is on record?
The half-life was 24 h.

What about the “patients with significant weight loss” value [11] of the same compound?
Its value is 11 of 12.
